Test results from patent US20260355184A1, “SMALL MOLECULE DEGRADERS OF HIV-1 TAT PROTEIN” (priority 2022, published 2026).
Where two headings read alike, the source gives them in different places.

Assays:
HeLa-CD4-LTR-LacZ cells = experiment: Cytotoxicity assay, Cell-Titer-Glo, HeLa-CD4-LTR-LacZ; settings: read-out: Infectivity CC50, HeLa-CD4-LTR-LacZ
Outline: (§1)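 HeLa-CD4-LTR-LacZ reporter cells (β-Gal under HIV 5′ LTR) infected with HIV NL4.3; β-Gal activity read 72 h post infection, with parallel Cell-Titer-Glo viability. OM10.1 carry a single wild-type provirus; ACH-2 a single provirus with TAR C37T mutation, defective Tat-TAR feedback.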

HIV NL4.3 strain = experiment: HIV infectivity assay, reporter cell line HeLa-CD4-LTR-LacZ, β-Gal activity (Tat protein inhibition); format: cell-based, HIV-1 (NL4.3)
Outline: as §1

[1] = Cytotoxicity assay, Cell-Titer-Glo, HeLa-CD4-LTR-LacZ; settings: human, hela-cd4-ltr-lacz cells, Infectivity CC50, HeLa-CD4-LTR-LacZ
Outline: as §1

Flag-Tat = biological target: T1, Flag-Tat (Human immunodeficiency virus type 1 (HXB3 ISOLATE), UniProt P69698); experiment: Degradation assay: Flag-Tat in HEK293T cells, western blot; format: cell-based, HIV; settings: for Flag-Tat degradation / steady state: HEK293T, western blot
T1 construct: Tat 86 aa likely (9 lysines)
Experimental: Next, the effect of the three leads on the alteration of Tat steady state levels was assessed. Tat expression from an integrated provirus, or from HIV acute infection is generally too low to be detected by western blot. Furthermore, antibodies against Tat are known for their lack of avidity. Tat degradation was thus assessed upon transfection. Flag-Tat or Flag-GFP were individually transfected into HEK293T and 24 hrs later, TT-44856, TT-44863 or TT-44881 were added to the culture, followed by Western blot 24 hrs later (dubbed “degradation assay”) (FIG. 5A). […] These cells were treated with TNFα (previously determined not be degraded by the three leads in FIG. 2D) in the presence of TT-44856, TT-44863 or TT-44881, followed by western blot with an anti-Flag antibody 17 hrs later. […] Finally, the leads' impact on recombinant Tat protein in HEK293T cells was assessed (FIG. 5D). HEK293T cells were incubated with recombinant Tat for 4 hrs to allow Tat internalization, followed by several thorough washes to remove unincorporated Tat. Cells were then incubated with all three leads (or Triptolide) for an additional 2 hrs. Cells were lysed and analyzed by western blot with an anti-Tat serum.
Degradation of Tat has been reported in the literature in multiple ways, including the lysosomal pathway^23, the ubiquitin-independent 20S proteasomal pathway (due to its unfolded structure)^24,25, and the ubiquitin-dependent 26S proteasomal pathway^26. It was first assessed whether Tat was targeted to the lysosomal pathway by the lead compounds. HEK293T cells were transfected with Flag-Tat for 24 hrs, incubated with the compounds for an additional 24 hrs, then treated for 8 hrs with either 100 μM chloroquine or 50 mM NH4Cl, both known to inhibit lysosomal hydrolases by reducing acidification. […] Both the 20S and the 26S proteasomal pathways were next investigated using MG132, an inhibitor of the catalytic […] of 20S present in both pathways^27. The degradation assay was carried out as above, but compounds were simultaneously incubated with MG132 20 μM or DMSO for 17 hrs followed by western blot. In the presence of MG132, Tat degradation was rescued, but the rescue was higher in the presence of the lead compounds (FIG. 6B).
Protein ubiquitination occurs by sequential recruitment of ubiquitin-activating enzyme E1, ubiquitin-conjugating enzyme E2, and ubiquitin ligase E3 (using ubiquitin, substrate protein, and ATP). The selectivity in protein ubiquitination is conferred by E3 ubiquitin ligases that recognize the substrate proteins^29 and the human genome contains more than 600 E3 ubiquitin ligases^29. To determine whether the small molecule leads trigger the 20S or the 26S proteasomal pathways, the Tat degradation assay was performed in the presence of commercially available E3 ligase inhibitors, including Lenalidomide a E3 ubiquitin ligase Cereblon inhibitor. Cereblon has not been previously reported to ubiquitinate Tat. The degradation assays were performed as above with Lenalidomide (40 μM) or DMSO incubation for 4 hrs in the presence of the lead molecules (FIG. 7A). […] To confirm the engagement of Cereblon in the mechanism of action of the lead compounds, shRNAs were used to stably knock down Cerebelon, or CD8 control, in HEK293T cells, and the degradation assay for TT-44856 was performed.
The involvement of the ubiquitous VHL E3 ligase in the activity of TT-44881 inducing Tat degradation was also investigated. HEK293T cells overexpressing Tat protein and VHL siRNAs (or si control) were treated with either TT-44881 (60 μM) and DMSO or TT-44881 with a VHL PROTAC (CM11, 500 nM) for 24 hours. siRNAs and PROTACs were used together to maximize the depletion of both VHL isoforms (30 and 19 kDa).

recombinant Tat = biological target: T2, recombinant Tat (Human immunodeficiency virus type 1 (HXB3 ISOLATE), UniProt P69698); experiment: Recombinant Tat stability in HEK293T cells, western blot; format: cell-based, HIV; settings: 4 hrs recombinant Tat then 2 hrs compound, n=1
T2 construct: detected with anti-Tat serum
Experimental: Next, the effect of the three leads on the alteration of Tat steady state levels was assessed. Tat expression from an integrated provirus, or from HIV acute infection is generally too low to be detected by western blot. Furthermore, antibodies against Tat are known for their lack of avidity. Tat degradation was thus assessed upon transfection. Flag-Tat or Flag-GFP were individually transfected into HEK293T and 24 hrs later, TT-44856, TT-44863 or TT-44881 were added to the culture, followed by Western blot 24 hrs later (dubbed “degradation assay”) (FIG. 5A). […] Finally, the leads' impact on recombinant Tat protein in HEK293T cells was assessed (FIG. 5D). HEK293T cells were incubated with recombinant Tat for 4 hrs to allow Tat internalization, followed by several thorough washes to remove unincorporated Tat. Cells were then incubated with all three leads (or Triptolide) for an additional 2 hrs. Cells were lysed and analyzed by western blot with an anti-Tat serum.

ACH-2 cells = experiment: Cell-associated HIV Gag mRNA expression / HIV transcription in latently infected ACH-2 cells; format: cell-based; settings: ACH-2; 12-day treatment with ARVs
Experimental: (§2) Next, the activity of these leads against HIV infection was evaluated using the reporter cell line HeLa-CD4-LTR-LacZ, which stably expresses the β-galactosidase (β-Gal) gene under the control of the HIV 5′ LTR. The HIV NL4.3 strain was used for these studies and β-Gal activity was measured 72 hrs post infection (FIG. 3A). Cytotoxicity assays using Cell-Titer-Glo were performed in parallel to assess cell viability (FIG. 3A). […] Their anti-HIV activity was further assessed in acute replication of Jurkat T cells with the NL4.3 strain (FIG. 3A). […] These OM10.1 cells contain a single integrated wild-type provirus, while ACH-2 cells contain a single integrated provirus with a TAR mutation C37T, defective Tat-TAR feedback loop (FIG. 3B).

[2] = test system: TAR-SIIB promoter (Flag-Tat-Rev fusion protein); experiment: Flag-Tat-Rev fusion protein transactivation of TAR-SIIB promoter; format: cell-based, HIV-1; settings: SIIB reporter HEK293T
Experimental: FIG. 4. […] Shown is n=1. […] Shown is n=1. ARVs: antiretrovirals: 100 nM Efavirenz, 200 nM Lamivudine and 200 nM Raltegravir. C. […] SIIB: a reporter HEK293T stable cell line where the essential apical region of TAR was replaced by the 29-nucleotide stem-loop IIB (SIIB) subdomain of the HIV-1 RRE. A Tat-Rev fusion protein activates transcription of luciferase when Rev binds SIIB, bringing Tat and P-TEFb to RNAPII at the HIV promoter. Shown is mean±SEM of n=4.

[3] = test system: TAR (Flag-Tat-Rev fusion protein); experiment: Flag-Tat-Rev fusion protein transactivation via TAR; format: cell-based, HIV-1; settings: TAR reporter
OM10.1 cells = experiment: Cell-associated HIV Gag mRNA expression / HIV transcription in latently infected OM10.1 cells; format: cell-based; settings: 12-day treatment with ARVs
Experimental: as §2

HIV = settings: combined with ART; CD4+ T cells from infected individuals and humanized mouse model; cited from earlier work
[4] = read-out: Infectivity IC50, HeLa-CD4-LTR-LacZ, analogs of TT-44856 (Table 3)

T1 sequence (P69698 whole entry): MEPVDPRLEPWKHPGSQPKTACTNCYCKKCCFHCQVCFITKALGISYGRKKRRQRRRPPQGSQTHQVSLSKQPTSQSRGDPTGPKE
T2 sequence (P69698 whole entry): as above

Compound: Cc1nccn1CCCNC(=O)C(C)(c1ccccc1)c1ccccc1 [3-53]
- CC50 (HeLa-CD4-LTR-LacZ cells; analogs of TT-44856 (Table 3)): 50 to 100 µM
- IC50 (HIV NL4.3 strain; [4]): 1 to 10 µM

Compound: O=C(NCCCn1ccnc1)C(c1ccccc1)c1ccccc1 [3-71]
- CC50 (HeLa-CD4-LTR-LacZ cells; analogs of TT-44856 (Table 3)): > 100 µM
- IC50 (HIV NL4.3 strain; [4]): 1 to 30 µM

Compound: O=C(NCCCN1CCCC1=O)c1nn(-c2ccccc2)c2c1CCCC2 [GB-02]
- CC50 (HeLa-CD4-LTR-LacZ cells; analogs of TT-44881 (Table 1)): > 100 µM
- IC50 (HIV NL4.3 strain; read-out: Infectivity IC50, HeLa-CD4-LTR-LacZ, analogs of TT-44881 (Table 1)): 50 to 100 µM

Compound: CN(CCCN1CCCC1=O)C(=O)c1nn(-c2ccccc2)c2c1CCC2 [GB-04]
- CC50 ([1]; analogs of TT-44881 (Table 1)): > 100 µM
- IC50 (HIV NL4.3 strain; Human immunodeficiency virus 1, read-out: Infectivity IC50, HeLa-CD4-LTR-LacZ, analogs of TT-44881 (Table 1)): > 100 µM
- Flag-Tat degradation / steady state (Flag-Tat): did not affect Flag-Tat steady state

Compound: COc1ccc(C#N)cc1NC(=O)Cn1cccc(Cl)c1=O [TT-46766]
- CC50 ([1]; analogs of TT-44863 (Table 2)): > 100 µM
- IC50 (HIV NL4.3 strain; Human immunodeficiency virus 1, read-out: Infectivity IC50, HeLa-CD4-LTR-LacZ, analogs of TT-44863 (Table 2)): > 100 µM
- Flag-Tat degradation / steady state (Flag-Tat): did not affect Flag-Tat steady state

Compound: CC(C)[C@]12O[C@H]1[C@@H]1O[C@]13[C@]1(O[C@H]1C[C@H]1C4=C(CC[C@@]13C)C(=O)OC4)[C@@H]2O [Triptolide, reference compound]
- recombinant Tat degradation (recombinant Tat): degraded Tat as opposed to the DMSO control
- Gag mRNA / HIV transcription (in words) (ACH-2 cells): reduced Gag mRNA in both cell lines
- Flag-Tat-Rev transactivation of TAR-SIIB [2]: inhibition of both TAR and TAR-SIIB
- Flag-Tat degradation / steady state (Flag-Tat): nonspecifically degraded Flag-Tat
- effect of Lenalidomide on compound induced Flag-Tat degradation (Flag-Tat; Lenalidomide 40 μM, 4 hrs): did not engage the 26S proteasomal pathway, but only the 20S proteasomal pathway
- Flag-Tat-Rev / TAR [3]: inhibition of both TAR and TAR-SIIB
- Gag mRNA / HIV transcription (in words) (OM10.1 cells): reduced Gag mRNA in both cell lines

Compound: CC(C)(C)OC(=O)COCCOCCOc1ccc(C(F)(F)F)cc1NC(=O)Cn1cc(C(F)(F)F)cc(Cl)c1=O [compound 56]
- CC50 (HeLa-CD4-LTR-LacZ cells; analogs of TT-44863 (Table 2)): > 100 µM
- IC50 (HIV NL4.3 strain; read-out: Infectivity IC50, HeLa-CD4-LTR-LacZ, analogs of TT-44863 (Table 2)): > 100 µM

Compound: CN(C)[C@H]1C[C@@]23CC[C@@]4(O2)C(=CC[C@]2(C)C(c5ccc6ccncc6c5)=CC[C@H]24)C=C3[C@@H](O)[C@@H]1O [dCA, didehydro-Cortistatin A, reference compound]
- transcription and viral rebound with ART (HIV): inhibits transcription and blocks viral rebound upon treatment interruption
- Flag-Tat-Rev / TAR [3]: interfered with the Flag-Tat-Rev to TAR binding
- Gag mRNA / HIV transcription (in words) (OM10.1 cells): only inhibited transcription in OM10.1 cells
